Like-named read-outs stand apart in the source and are kept apart here.
Experiments:
[1] = target: T1, PfCRT^Dd2 (Plasmodium falciparum, UniProt Q9N623, A220S/I356T/K76T/M74I/N326S/N75E/Q271E/R371I); assay: [3H]CQ uptake into Xenopus oocytes, cis-inhibition by unlabelled solute; assay type: cell-based
Procedure, shortened: (§1)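 Transport runs from the acidic bath into the cytosol, analogous to PfCRT-mediated efflux out of the vacuole. Non-expressing oocytes act as background.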

[2] = target: T2, PfCRT^Ecu1110 (Plasmodium falciparum, UniProt Q9N623, A220S/I356L/K76T/N326D); assay: as above; assay type: cell-based
Procedure, shortened: as §1

[3] = target: T3, PfCRT^3D7 (Plasmodium falciparum, UniProt Q8IBZ9); assay: cell-based; assay type: cell-based; conditions: total [3H]CQ transport; for inhibition at 500 µM: [test solute] = 0.5 mM; for inhibition at 1000 µM: [test solute] = 1 mM; for inhibition at 2000 µM: [test solute] = 2 mM
Procedure, shortened: as §1

[4] = tested on: PfCRT; assay: Potential co-substrates tested for influx of VF-6 via PfCRT into the oocyte; assay type: cell-based, Plasmodium falciparum; set-up: key: X: Compounds that have been tested as potential co-substrates but are not required for influx of VF-6 via PfCRT into the oocyte
[5] = target: T1, PfCRT^Dd2; assay: cell-based; assay type: cell-based; conditions: […]; for activity at 45000 µM: [test solute]i = 45 mM (30 mM for some solutes due to solubility)
Procedure, shortened: (§2)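 Oocytes (ten per treatment, ≥4 independent frogs/days) were preloaded by injecting VF-6 in 25 nL ND96 at pH 5.0, 5.5, 6.0 or 7.0, or Na^+-free choline buffer, then uptake run 1.5 h, 27.5 °C, ND96 pH 5.5 by default. Internal concentrations assumed ~400 nL oocyte volume.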

[6] = target: T2, PfCRT^Ecu1110; assay: cell-based; assay type: cell-based; conditions: […]
Procedure, shortened: as §2

[7] = target: T3, PfCRT^3D7; assay: cell-based; assay type: cell-based
Procedure, shortened: as §2

[8] = target: T4, PfNT1 (Plasmodium falciparum, UniProt Q8IDM6); assay: cell-based; assay type: cell-based; conditions: for activity at 5000 µM: total [3H]CQ transport
T4 construct: expressed in transfected cells; host or cells: Xenopus laevis oocytes (stage V-VI), cRNA-injected
Procedure, shortened: as §2

[9] = tested on: non-expressing oocytes; assay: cells; assay type: cell-based, Xenopus laevis; conditions: Xenopus laevis, total [3H]CQ transport; for inhibition at 500 µM: [test solute] = 0.5 mM; for inhibition at 1000 µM: [test solute] = 1 mM; for inhibition at 2000 µM: [test solute] = 2 mM
Procedure, shortened: as §1

[10] = tested on: non-expressing oocytes; assay type: cell-based, Xenopus laevis; conditions: total [3H]CQ transport; for Uptake of [3H]CQ (% non-expressing oocyte control), trans-stimulation: non-expressing oocytes, normalised to the oocyte type control; for Uptake of [3H]CQ (% PfCRTDd2 control), trans-stimulation, non-expressing oocytes: mean ± SEM, SEM
Procedure, shortened: as §2

[11] = tested on: PfCRT; assay: Test of solutes as potential co-substrates for influx of VF-6 via PfCRT into the oocyte; assay type: cell-based, Plasmodium falciparum; set-up: key: X: Compounds that have been tested as potential co-substrates but are not required for influx of VF-6 via PfCRT into the oocyte; conditions: X = tested
[12] = read-out: PfCRT-mediated [3H]CQ transport, cis-inhibition (% PfCRTDd2 control)
[13] = read-out: Uptake of [3H]CQ (% PfCRTDd2 control), cis-inhibition, PfCRTDd2, SEM
[14] = read-out: PfCRT-mediated [3H]CQ transport, cis-inhibition (% PfCRTEcu1110 control)
[15] = read-out: Uptake of [3H]CQ (% PfCRTDd2 control), cis-inhibition, PfCRTEcu1110, SEM
[16] = read-out: Uptake of [3H]CQ (% PfCRTEcu1110 control), cis-inhibition
[17] = read-out: [3H]CQ transport (% PfCRTEcu1110 control), cis-inhibition, PfCRTEcu1110, SEM
[18] = PfCRT3D7 oocytes, normalised to the oocyte type control, read-out: Uptake of [3H]CQ (% PfCRT3D7 control), cis-inhibition
[19] = mean ± SEM, SEM, read-out: Uptake of [3H]CQ (% PfCRTDd2 control), cis-inhibition, PfCRT3D7
[20] = Oocyte, mean ± SEM, SEM, read-out: Uptake of [3H]CQ (% PfCRTDd2 control), cis-inhibition, non-expressing oocytes
[21] = non-expressing oocytes, normalised to the oocyte type control, read-out: Uptake of [3H]CQ (% non-expressing oocyte control), cis-inhibition

T4 sequence (Q8IDM6 whole entry): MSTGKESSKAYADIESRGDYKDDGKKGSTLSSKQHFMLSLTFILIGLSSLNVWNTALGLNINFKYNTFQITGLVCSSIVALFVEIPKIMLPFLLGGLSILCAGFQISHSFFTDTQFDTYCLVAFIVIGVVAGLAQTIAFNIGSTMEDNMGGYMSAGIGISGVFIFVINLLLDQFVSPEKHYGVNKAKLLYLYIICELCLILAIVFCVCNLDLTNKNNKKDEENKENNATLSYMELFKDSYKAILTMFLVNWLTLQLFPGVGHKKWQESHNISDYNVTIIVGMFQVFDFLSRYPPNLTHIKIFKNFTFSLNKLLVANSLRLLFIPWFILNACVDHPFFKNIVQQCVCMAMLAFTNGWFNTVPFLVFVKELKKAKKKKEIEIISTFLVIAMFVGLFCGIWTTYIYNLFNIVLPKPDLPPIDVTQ
T2 sequence (Q9N623 whole entry A220S/I356L/K76T/N326D): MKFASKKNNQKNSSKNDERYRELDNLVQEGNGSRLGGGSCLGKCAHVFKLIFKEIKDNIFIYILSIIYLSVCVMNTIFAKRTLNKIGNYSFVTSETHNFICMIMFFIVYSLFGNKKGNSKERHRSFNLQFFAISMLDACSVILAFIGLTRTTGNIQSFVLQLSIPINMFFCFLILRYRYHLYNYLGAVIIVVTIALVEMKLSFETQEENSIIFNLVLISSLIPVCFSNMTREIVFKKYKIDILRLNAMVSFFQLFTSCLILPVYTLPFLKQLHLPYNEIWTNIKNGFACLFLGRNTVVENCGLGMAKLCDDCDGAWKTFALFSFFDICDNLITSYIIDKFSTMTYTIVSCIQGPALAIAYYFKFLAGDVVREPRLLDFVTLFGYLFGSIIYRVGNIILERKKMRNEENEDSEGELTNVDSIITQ
T1 sequence (Q9N623 whole entry A220S/I356T/K76T/M74I/N326S/N75E/Q271E/R371I): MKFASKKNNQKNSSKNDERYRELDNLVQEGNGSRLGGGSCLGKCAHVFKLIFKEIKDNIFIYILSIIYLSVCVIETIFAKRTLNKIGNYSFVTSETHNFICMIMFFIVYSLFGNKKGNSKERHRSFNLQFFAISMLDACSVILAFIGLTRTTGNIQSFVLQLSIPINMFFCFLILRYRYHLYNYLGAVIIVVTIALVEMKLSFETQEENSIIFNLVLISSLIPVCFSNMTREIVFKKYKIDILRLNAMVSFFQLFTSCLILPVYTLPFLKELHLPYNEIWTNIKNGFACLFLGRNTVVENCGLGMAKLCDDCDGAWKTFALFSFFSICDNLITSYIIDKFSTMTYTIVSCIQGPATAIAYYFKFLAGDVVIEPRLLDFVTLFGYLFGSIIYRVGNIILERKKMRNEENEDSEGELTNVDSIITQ
T3 sequence (Q8IBZ9 59-398): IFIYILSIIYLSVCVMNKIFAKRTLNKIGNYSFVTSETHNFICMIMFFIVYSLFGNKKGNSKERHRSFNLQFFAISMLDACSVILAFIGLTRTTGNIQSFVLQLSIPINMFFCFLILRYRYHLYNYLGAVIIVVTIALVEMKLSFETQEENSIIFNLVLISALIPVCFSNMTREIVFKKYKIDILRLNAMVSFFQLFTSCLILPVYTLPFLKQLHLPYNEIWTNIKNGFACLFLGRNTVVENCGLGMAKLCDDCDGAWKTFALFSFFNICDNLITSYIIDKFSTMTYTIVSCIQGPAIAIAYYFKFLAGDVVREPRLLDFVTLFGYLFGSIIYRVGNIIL

Q: Which results are given for `C[C@@H](O)[C@H](N)C(=O)O` [L-threonine]?
A: inhibition at 500 µM [1, 12]: 95 ± 3.6%; inhibition at 2000 µM [1, 12]: 92 ± 5.6%; inhibition at 500 µM [1, 13]: 97 ± 2.5%; inhibition at 1000 µM [1, 13]: 96 ± 3.6%; inhibition at 2000 µM [1, 13]: 94 ± 3.2%; inhibition at 500 µM [2, 14]: 94 ± 1.1%; inhibition at 1000 µM [2, 14]: 95 ± 1.3%; inhibition at 2000 µM [2, 14]: 94 ± 3.7%; inhibition at 500 µM [2, 15]: 31 ± 1.1%; inhibition at 1000 µM [2, 15]: 32 ± 1.9%; inhibition at 2000 µM [2, 15]: 31 ± 1.3%; inhibition at 500 µM [2, 16]: 96 ± 3.1%; inhibition at 1000 µM [2, 16]: 98 ± 2.4%; inhibition at 2000 µM [2, 16]: 96 ± 2.2%; inhibition at 500 µM [2, 17]: 28 ± 0.6%; inhibition at 1000 µM [2, 17]: 29 ± 0.8%; inhibition at 2000 µM [2, 17]: 28 ± 1.5%; inhibition at 500 µM [3, 18]: 100 ± 4.7%; inhibition at 1000 µM [3, 18]: 100 ± 5.3%; inhibition at 2000 µM [3, 18]: 99 ± 5.3%; inhibition at 500 µM [3, 19]: 2.9 ± 0.03%; inhibition at 1000 µM [3, 19]: 2.8 ± 0.07%; inhibition at 2000 µM [3, 19]: 3.3 ± 0.03%; Tested as potential co-substrate but not required for influx of VF-6 via PfCRT into the oocyte [4]: X; activity at 5000 µM ([5]; pH 5.5, read-out: PfCRT-mediated [3H]CQ transport, trans-stimulation (% PfCRTDd2 control), [test solute]i = 5 mM (intracellular), PfCRTDd2 oocytes, normalised to oocyte type control): 96 ± 3.2%; activity at 5000 µM ([5]; pH 5.5, read-out: Uptake of [3H]CQ (% PfCRTDd2 control), trans-stimulation, PfCRTDd2, total [3H]CQ transport, [test solute]i = 5 mM (intracellular), mean ± SEM, SEM): 98 ± 3.2%; activity at 5000 µM ([5]; pH 5.5, read-out: Uptake of [3H]CQ (% PfCRTDd2 control), trans-stimulation, PfCRTDd2 oocytes, [test solute]i = 5 mM, total [3H]CQ transport, normalised to the oocyte type control): 98 ± 3.2%; activity at 45000 µM ([5]; pH 5.5, read-out: Uptake of [3H]CQ (% PfCRTDd2 control), trans-stimulation, PfCRTDd2 oocytes, total [3H]CQ transport, normalised to the oocyte type control): 99 ± 3.2%; activity at 5000 µM ([5]; pH 5.5, read-out: [3H]CQ transport (% PfCRTDd2 control), trans-stimulation, PfCRTDd2, trans-stimulation, [test solute]i = 5 mM (injected), PfCRT-mediated component (background subtracted), mean ± SEM, SEM): 96 ± 3.2%; activity at 45000 µM ([5]; pH 5.5, read-out: [3H]CQ transport (% PfCRTDd2 control), trans-stimulation, PfCRTDd2, trans-stimulation, PfCRT-mediated component (background subtracted), mean ± SEM, SEM): 97 ± 3.9%; activity at 5000 µM ([6]; pH 5.5, read-out: PfCRT-mediated [3H]CQ transport, trans-stimulation (% PfCRTEcu1110 control), [test solute]i = 5 mM (intracellular), PfCRTEcu1110 oocytes, normalised to oocyte type control): 99 ± 3.4%; activity at 5000 µM ([6]; pH 5.5, read-out: Uptake of [3H]CQ (% PfCRTEcu1110 control), trans-stimulation, PfCRTEcu1110 oocytes, [test solute]i = 5 mM, total [3H]CQ transport, normalised to the oocyte type control): 101 ± 2.5%; activity at 45000 µM ([6]; pH 5.5, read-out: Uptake of [3H]CQ (% PfCRTEcu1110 control), trans-stimulation, PfCRTEcu1110 oocytes, [test solute]i = 45 mM (30 mM for some solutes due to solubility), total [3H]CQ transport, normalised to the oocyte type control): 99 ± 2%; activity at 5000 µM ([6]; read-out: Uptake of [3H]CQ (% PfCRTDd2 control), trans-stimulation, PfCRTEcu1110, total [3H]CQ transport, [test solute]i = 5 mM (intracellular), mean ± SEM, SEM): 36 ± 1.9%; activity at 45000 µM ([6]; read-out: Uptake of [3H]CQ (% PfCRTDd2 control), trans-stimulation, PfCRTEcu1110, total [3H]CQ transport, [test solute]i = 45 mM (intracellular; 30 mM for some solutes due to solubility), mean ± SEM, SEM): 35 ± 1.3%; activity at 5000 µM ([7]; PfCRT3D7 oocytes, [test solute]i = 5 mM, total [3H]CQ transport, normalised to the oocyte type control, read-out: Uptake of [3H]CQ (% PfCRT3D7 control), trans-stimulation): 99 ± 4.2%; [3H]CQ transport (% PfCRT3D7 control), trans-stimulation, PfCRT3D7 ([7]; SEM): 0.3 ± 0.01 % PfCRT3D7 control; activity at 5000 µM ([7]; [test solute]i = 5 mM (intracellular), PfCRT3D7 oocytes, normalised to oocyte type control, read-out: PfCRT-mediated [3H]CQ transport, trans-stimulation (% PfCRT3D7 control)): 97 ± 2.9%; activity at 45000 µM ([7]; SEM, read-out: Uptake of [3H]CQ (% PfCRTDd2 control), trans-stimulation, PfCRT3D7): 3.3 ± 0.02%; activity at 45000 µM ([7]; read-out: PfCRT-mediated [3H]CQ transport, trans-stimulation (% PfCRT3D7 control)): 96 ± 3.1%; activity at 45000 µM ([7]; read-out: Uptake of [3H]CQ (% PfCRT3D7 control), trans-stimulation): 98 ± 2.8%; activity at 5000 µM ([7]; total [3H]CQ transport, [test solute]i = 5 mM (intracellular), mean ± SEM, SEM, read-out: Uptake of [3H]CQ (% PfCRTDd2 control), trans-stimulation, PfCRT3D7): 3.3 ± 0.1%; activity at 5000 µM ([8]; PfNT1 oocytes, [test solute]i = 5 mM, normalised to the oocyte type control, read-out: Uptake of [3H]CQ (% PfNT1 control), trans-stimulation): 99 ± 3.5%; activity at 45000 µM ([8]; SEM, read-out: Uptake of [3H]CQ (% PfCRTDd2 control), trans-stimulation, PfNT1): 2.6 ± 0.08%; activity at 45000 µM ([8]; read-out: Uptake of [3H]CQ (% PfNT1 control), trans-stimulation): 100 ± 2.6%; activity at 5000 µM ([8]; [test solute]i = 5 mM (intracellular), mean ± SEM, SEM, read-out: Uptake of [3H]CQ (% PfCRTDd2 control), trans-stimulation, PfNT1): 2.8 ± 0.05%; inhibition at 500 µM [9, 20]: 2.2 ± 0.04%; inhibition at 1000 µM [9, 20]: 3.8 ± 0.08%; inhibition at 2000 µM [9, 20]: 2.8 ± 0.02%; inhibition at 500 µM [9, 21]: 95 ± 5.4%; inhibition at 1000 µM [9, 21]: 98 ± 3.6%; inhibition at 2000 µM [9, 21]: 100 ± 3.6%; Uptake of [3H]CQ (% non-expressing oocyte control), trans-stimulation ([10]; [test solute]i = 5 mM): 101 ± 3.2 % non-expressing oocyte control; Uptake of [3H]CQ (% non-expressing oocyte control), trans-stimulation ([10]; [test solute]i = 45 mM (30 mM for some solutes due to solubility)): 99 ± 2.4 % non-expressing oocyte control; Uptake of [3H]CQ (% PfCRTDd2 control), trans-stimulation, non-expressing oocytes ([10]; [test solute]i = 5 mM (intracellular)): 2.4 ± 0.08 % PfCRTDd2 control; Uptake of [3H]CQ (% PfCRTDd2 control), trans-stimulation, non-expressing oocytes ([10]; [test solute]i = 45 mM (intracellular; 30 mM for some solutes due to solubility)): 2.8 ± 0.02 % PfCRTDd2 control; Tested as potential co-substrate but not required for influx of VF-6 via PfCRT into the oocyte [11]: X

Reference: PMC7413254 (Nature Communications, 2020)
